For this test, the system named is Plasmodium berghei. Nature of the test: Luciferase/luciferin-expressing antifolate-resistant parasites were used to infect a culture of HepG2 cells that were pre-incubated with compounds. Infected hepatocytes emit light due to the luciferase reaction. Assay results are presented as the percent inhibition of light emission compared to control. […]. Type of test: functional. To be noted: sporozoite; for IC90: read-out: LUCIFERASE INFECTION ASSAY - IC90.

The mark [1] stands for this setting: read-out: LUCIFERASE INFECTION ASSAY - IC50.

SMILES strings stand for the structures. A value given as a limit tells only on which side of the number the result lay.

Broadly, the IC50 is the concentration at which inhibition is half-maximal. As usually defined, the IC90 is the concentration at which the effect reaches the 90% level. Turning to `Cc1cccc(-c2cn3c(-c4ccc(C#N)cc4)cnc3cn2)c1C`, the IC90 came out at 8.03 µM. Besides, the IC50 (PBLUC_HILL_SLOPE 3.65, PBLUC_R_SQUARED 0.571, read-out: LUCIFERASE INFECTION ASSAY - IC50) amounted to 4.4 µM.

As to `CN(CC(=O)Nc1nnc(-c2ccccc2)o1)Cc1ccccc1C(F)(F)F`, the concentration for an effect of 90% (IC90) turned out to be 3.69 µM. Under “PBLUC_HILL_SLOPE 1.69E+03, PBLUC_R_SQUARED 0.413, read-out: LUCIFERASE INFECTION ASSAY - IC50”, the IC50 came to 3.69 µM.

On to `CC(Sc1nnc2ccc(C(F)(F)F)cn12)C(=O)NCC1CCCO1` (stereo not drawn), for which the IC90 was greater than 10 µM. Besides, under setting [1], the IC50 was greater than 10 µM.

On to `Cn1nc(C(=O)NCC(c2cccs2)N2CCCC2)c2ccccc2c1=O` (stereo not drawn), for which the IC90 is greater than 10 µM. Under setting [1], the IC50 was greater than 10 µM.

In the case of `Cc1noc(C)c1-c1nccc2n[nH]c(-c3ccccc3)c12`, the IC90 is greater than 10 µM. In addition, the half-inhibitory concentration (IC50) (PBLUC_HILL_SLOPE 15.1, PBLUC_R_SQUARED 0.272, read-out: LUCIFERASE INFECTION ASSAY - IC50) worked out at 9.26 µM.

As for `COC(=O)c1cc(-c2ccc(C)cc2)nc2onc(C(C)C)c12`, the 90% effect concentration (IC90) is greater than 10 µM. Further, the IC50 under setting [1] was greater than 10 µM.

As to `Cc1cc(SCC(=O)NNC(=O)c2ccc(NS(=O)(=O)c3cccs3)cc2)nc2ccccc12`, the concentration for an effect of 90% (IC90) was greater than 10 µM. Besides, the concentration for half-maximal inhibition (IC50) under setting [1] is greater than 10 µM.

For the molecule `Cc1cc2nc(Oc3ccc4c(c3)CCC4)c3ccccc3n2n1`, the concentration for an effect of 90% (IC90) is greater than 10 µM. For the same molecule, the IC50 under setting [1] is greater than 10 µM.

Turning to `COc1ccc(C(=O)NCC#Cc2cccc(C(F)(F)F)c2)cn1`, the 90% effect concentration (IC90) was greater than 10 µM. Also, the IC50 (FFLUC_HILL_SLOPE 300, FFLUC_R_SQUARED 0.355, read-out: LUCIFERASE INFECTION ASSAY - IC50) was greater than 10 µM.

Regarding `COc1ccc(N(C(C)=O)c2nc(/C=C/C(=O)c3ccc(F)cc3)cs2)cc1`, the concentration for an effect of 90% (IC90) was greater than 10 µM. Besides, the IC50 (FFLUC_HILL_SLOPE 11.2, FFLUC_R_SQUARED 0.397, read-out: LUCIFERASE INFECTION ASSAY - IC50) was greater than 10 µM.

Take `CN(CCCc1[nH]nc(N)c1C#N)c1nc(-c2ccccn2)nc2scc(-c3ccccc3)c12`: the concentration for an effect of 90% (IC90) was greater than 10 µM. The IC50 under setting [1] came to 7.69 µM.

Take `Cc1cc(C)cc(N(C(=O)C23CC4CC(CC(C4)C2)C3)C2C=CS(=O)(=O)C2)c1` (stereo not drawn): the IC90 is greater than 10 µM. In addition, under setting [1], the half-inhibitory concentration (IC50) is greater than 10 µM.

As to `CCCc1cc(=O)oc2cc(OCC(=O)NNC(=S)NC(=O)c3ccc(Cl)cc3)ccc12`, the IC90 was greater than 6.96 µM. Further, under setting [1], the IC50 is greater than 6.96 µM.

Consider `N#Cc1ccc(C(=O)C(C#N)c2nc(-c3ccc(F)cc3)cs2)cc1` (stereo not drawn), for which the IC90 amounted to 3.83 µM. Also, under “PBLUC_HILL_SLOPE 17.7, PBLUC_R_SQUARED 0.0264, read-out: LUCIFERASE INFECTION ASSAY - IC50”, the IC50 is 3.38 µM.

As for `CC(C)N1CCCc2cc(CN3CCC4(CC3)C(=O)N(CCCc3ccncc3)C(=O)N4C)ccc21`, the IC90 was greater than 6.74 µM. Also, where the note is “HEPG2TOX_HILL_SLOPE 0.974, HEPG2TOX_R_SQUARED 0.954, PBLUC_HILL_SLOPE 1.42, PBLUC_R_SQUARED 0.506, read-out: LUCIFERASE INFECTION ASSAY - IC50”, the IC50 stood at 3.48 µM.

For `O=C1OCCC1Sc1nc(-c2ccccc2)c(-c2ccccc2)o1` (stereo not drawn), the concentration for an effect of 90% (IC90) was greater than 9.78 µM. Moreover, the IC50 (PBLUC_HILL_SLOPE 0.774, PBLUC_R_SQUARED 0.522, read-out: LUCIFERASE INFECTION ASSAY - IC50) is 4.13 µM.

Take `CCCNC(=O)c1c(NC(=O)c2ccc(F)c(F)c2F)nc2ccccn12`: the IC90 is greater than 8.77 µM. Moreover, the concentration for half-maximal inhibition (IC50) (HEPG2TOX_HILL_SLOPE 5.13, HEPG2TOX_R_SQUARED 0.252, PBLUC_HILL_SLOPE 2.06, PBLUC_R_SQUARED 0.791, read-out: LUCIFERASE INFECTION ASSAY - IC50) stood at 6.47 µM.

Turning to `O=C(COC(=O)c1ccc2ccccc2n1)NCCc1ccccc1`, the concentration for an effect of 90% (IC90) is greater than 10 µM. Also, the IC50 under setting [1] is greater than 10 µM.

Regarding `O=C1/C(=C/Nc2ccccc2O)c2ccccc2C(=O)N1c1ccccc1Cl`, the IC90 was greater than 10 µM. In addition, under setting [1], the half-inhibitory concentration (IC50) was greater than 10 µM.

Turning to `CN1CCN(c2nc(-c3c[nH]c4ccccc34)c(-c3ccccc3)s2)CC1`, the IC90 is greater than 10 µM. The IC50 (PBLUC_HILL_SLOPE 45.6, PBLUC_R_SQUARED 0.243, read-out: LUCIFERASE INFECTION ASSAY - IC50) turned out to be 9.92 µM.

For `CCC(C)(C)c1ccc(OCC(=O)Nc2ccc(Cl)c(N)c2)c(C(C)(C)CC)c1`, the IC90 is 3.07 µM. Besides, the IC50 (FFLUC_HILL_SLOPE 11.8, FFLUC_R_SQUARED 0.0263, PBLUC_HILL_SLOPE 15.2, PBLUC_R_SQUARED 0.794, read-out: LUCIFERASE INFECTION ASSAY - IC50) was found to be 2.66 µM.

For the molecule `COC(=O)c1cc(CSc2nc3ccccc3c(=O)n2-c2ccc(OC)cc2)oc1C`, the IC90 was greater than 10 µM. Moreover, the IC50 (PBLUC_HILL_SLOPE 8.32, PBLUC_R_SQUARED 0.0862, read-out: LUCIFERASE INFECTION ASSAY - IC50) is greater than 10 µM.

As for `O=C(NCC1CC1)Nc1csc(Cc2c(Cl)cccc2Cl)n1`, the IC90 was greater than 9.26 µM. Also, the IC50 (PBLUC_HILL_SLOPE 0.58, PBLUC_R_SQUARED 0.694, read-out: LUCIFERASE INFECTION ASSAY - IC50) is greater than 9.26 µM.

Consider `NS(=O)(=O)c1ccc(CCNc2nn3c(-c4cccc(OC(F)(F)F)c4)cnc3s2)cc1`, for which the 90% effect concentration (IC90) was greater than 6.83 µM. Where the note is “FFLUC_HILL_SLOPE 3.32, FFLUC_R_SQUARED 0.88, HEPG2TOX_HILL_SLOPE 6.82, HEPG2TOX_R_SQUARED 0.258, PBLUC_HILL_SLOPE 3.52, PBLUC_R_SQUARED 0.409, read-out: LUCIFERASE INFECTION ASSAY - IC50”, the IC50 was determined as 4 µM.

Turning to `CC(Sc1ncnc2sc(-c3ccccc3)cc12)C(=O)N1CCNC1=O` (stereo not drawn), the IC90 is greater than 10 µM. In addition, the IC50 (PBLUC_HILL_SLOPE 3.73, PBLUC_R_SQUARED 0.46, read-out: LUCIFERASE INFECTION ASSAY - IC50) came out at 5.98 µM.

In the case of `O=C(Nc1ccc(Cl)cc1)Nc1cc(-c2cc(-c3ccccc3)c(C(F)(F)F)s2)n[nH]1`, the 90% effect concentration (IC90) is greater than 7.13 µM. In addition, the half-inhibitory concentration (IC50) (PBLUC_HILL_SLOPE 12.1, PBLUC_R_SQUARED 0.235, read-out: LUCIFERASE INFECTION ASSAY - IC50) is 6.86 µM.

`CN(C)c1ccc(C2CC(=O)c3ccccc3N2)cc1` (stereo not drawn): the concentration for an effect of 90% (IC90) is greater than 12.4 µM. Besides, the half-maximal inhibitory concentration (IC50) under setting [1] is greater than 12.4 µM.

Turning to `O=C(Nc1ncccc1O)c1csc(COc2ccc(Cl)cc2)n1`, the 90% effect concentration (IC90) is 7.89 µM. For the same molecule, the concentration for half-maximal inhibition (IC50) (HEPG2TOX_HILL_SLOPE 10.3, HEPG2TOX_R_SQUARED 0.899, PBLUC_HILL_SLOPE 4.56, PBLUC_R_SQUARED 0.315, read-out: LUCIFERASE INFECTION ASSAY - IC50) was 4.88 µM.

Consider `O=C(c1ccc(-n2cccn2)cc1)N1CCC(n2c(=O)[nH]c3ccccc32)CC1`, for which the IC90 was greater than 10 µM. The 50% inhibitory concentration (IC50) (HEPG2TOX_HILL_SLOPE 0.884, HEPG2TOX_R_SQUARED 0.19, PBLUC_HILL_SLOPE 11.8, PBLUC_R_SQUARED 0.218, read-out: LUCIFERASE INFECTION ASSAY - IC50) is 9.85 µM.

`COc1ccc(CN(Cc2n/c(=N\c3ccccc3C)nc(N)[nH]2)Cc2n/c(=N\c3ccccc3C)nc(N)[nH]2)cc1OC`: the IC90 is 4.51 µM. For the same molecule, under “PBLUC_HILL_SLOPE 2.79, 12.2, PBLUC_R_SQUARED 0.127, 0.675, read-out: LUCIFERASE INFECTION ASSAY - IC50”, the half-maximal inhibitory concentration (IC50) was determined as 2.77 µM.

As for `COc1cc2nc(-c3ccccc3)nc(N3CCN(CCN4CCCC4)CC3)c2cc1OC`, the IC90 came to 7.65 µM. Further, the IC50 (PBLUC_HILL_SLOPE 1.93, PBLUC_R_SQUARED 0.643, read-out: LUCIFERASE INFECTION ASSAY - IC50) was 2.46 µM.

Turning to `OC(CNCCc1ccc(Cl)cc1Cl)COc1ccccc1` (stereo not drawn), the concentration for an effect of 90% (IC90) is greater than 10 µM. Also, the concentration for half-maximal inhibition (IC50) under setting [1] was greater than 10 µM.

As to `CCOC(=O)c1cnn(-c2ccc(C(=O)N(Cc3ccc(F)cc3)C3CC3)cc2)c1C`, the IC90 is greater than 10 µM. For the same molecule, the IC50 under setting [1] was greater than 10 µM.

In the case of `CCc1cccc2c(C(=O)COC(=O)/C(C#N)=C/c3ccc(OC)cc3)c[nH]c12`, the concentration for an effect of 90% (IC90) is greater than 10 µM. Moreover, the IC50 (HEPG2TOX_HILL_SLOPE 1.4, HEPG2TOX_R_SQUARED 0.562, read-out: LUCIFERASE INFECTION ASSAY - IC50) was greater than 10 µM.

`CC(C)(C)c1ccc(C(=O)Nc2ncccc2O)cc1`: the IC90 is 0.647 µM. In addition, the IC50 (FFLUC_HILL_SLOPE 1.42, FFLUC_R_SQUARED 0.79, PBLUC_HILL_SLOPE 0.554, PBLUC_R_SQUARED 0.72, read-out: LUCIFERASE INFECTION ASSAY - IC50) was determined as 0.0122 µM.

With `CC1CC(C)CN(Cc2ccc(C(=O)Nc3ccccc3)cc2)C1` (stereo not drawn), the IC90 turned out to be 7.47 µM. Besides, under “HEPG2TOX_HILL_SLOPE 11.8, HEPG2TOX_R_SQUARED 0.877, PBLUC_HILL_SLOPE 2.66, PBLUC_R_SQUARED 0.557, read-out: LUCIFERASE INFECTION ASSAY - IC50”, the IC50 turned out to be 3.28 µM.

With `c1ccc(NCCNc2nc(-c3ccncc3)nc3ccccc23)nc1`, the IC90 is greater than 10 µM. The IC50 (PBLUC_HILL_SLOPE 1.36, PBLUC_R_SQUARED 0.325, read-out: LUCIFERASE INFECTION ASSAY - IC50) is 5.09 µM.

For the molecule `Cc1cc(C)c(-c2csc(NC(=O)C3CC4CCCC(C3)C4=O)n2)c(C)c1` (stereo not drawn), the IC90 was greater than 10 µM. Also, the half-inhibitory concentration (IC50) (HEPG2TOX_HILL_SLOPE 3.24, HEPG2TOX_R_SQUARED 0.936, PBLUC_HILL_SLOPE 1.48, PBLUC_R_SQUARED 0.583, read-out: LUCIFERASE INFECTION ASSAY - IC50) amounted to 2.93 µM.

In the case of `Fc1ccc(CNc2ncnc3ccc(Cl)cc23)cc1`, the 90% effect concentration (IC90) stood at 9.51 µM. For the same molecule, the 50% inhibitory concentration (IC50) (HEPG2TOX_HILL_SLOPE 10.6, HEPG2TOX_R_SQUARED 0.947, PBLUC_HILL_SLOPE 2.4, PBLUC_R_SQUARED 0.787, read-out: LUCIFERASE INFECTION ASSAY - IC50) is 3.81 µM.

These data come from ChEMBL document CHEMBL4483862, “Open-source discovery of chemical leads for next-generation chemoprotective antimalarials” (2018).
